According to ChEMBL document CHEMBL5724696, “Autophagy assay results for EUbOPEN Chemogenomics Library” (2024):
Several values for one entry are separate records, joined by “and”; a condition that tells them apart may be missing. Equal entries are not always repeated.

Assays:
Type in all cases: functional, Homo sapiens
TERT-RPE1 = test: (§1) Here: values are normalized to the negative (DMSO; defined as 0% autophagy induction) and positive (250nM Torin1; mTOR inhibitor; defined as maximal inducer of autophagy = 100%) control compounds and represented as % of autophagy induction. […] The impact of autophagy induction on cells is complex and depends on the affected target. As such, the magnitude of a phenotype may not be equally mirrored in the %-value of autophagy induction and vice versa. The dynamics of the induction may indicate the mode of activation: e.g. activation via phosphorylation or a signaling cascade may occur fast, while activation via transcription factors may take considerably longer. […] Of note, treatment concentrations may be sub-optimal for specific compounds, leading to false negative annotations.; conditions: Culturing Media DMEM/F12 (1:1), 1 % Penicillin/Streptomycin, 10% Fetal bovin serum Add-On: No, Screening Media Control DMEM/F12 (1:1), Screening Media Samples DMEM/F12 (1:1)
U2OS [1] = test: as §1; conditions: Culturing Media DMEM, 1 % Penicillin/Streptomycin, 10% Fetal bovin serum Add-On: No, Screening Media Control DMEM, Screening Media Samples DMEM
U2OS [2] = test: as §1; conditions: Culturing Media DMEM, 1 % Penicillin/Streptomycin, 10% Fetal bovin serum Add-On: No, Screening Media Control DMEM, Screening Media Samples DMEM; remark: listed apart in the source
[3] = Compound Concentration 0.5 uM, Timepoint 12 hours
[4] = Compound Concentration 0.5 uM, Timepoint 24 hours
[5] = Compound Concentration 0.5 uM, Timepoint 36 hours
[6] = Compound Concentration 0.5 uM, Timepoint 60 hours
[7] = Compound Concentration 2 uM, Timepoint 12 hours
[8] = Compound Concentration 2 uM, Timepoint 24 hours
[9] = Compound Concentration 2 uM, Timepoint 36 hours
[10] = Compound Concentration 2 uM, Timepoint 60 hours
[11] = Compound Concentration 10 uM, Timepoint 12 hours
[12] = Compound Concentration 10 uM, Timepoint 24 hours
[13] = Compound Concentration 10 uM, Timepoint 36 hours
[14] = Compound Concentration 10 uM, Timepoint 60 hours

SMILES: O=C(O)C1CN(Cc2ccc(OCc3ccc(Cl)c(Cl)c3)cc2)C1
- autophagy induction (TERT-RPE1; [3]): -8.997%
- autophagy induction (TERT-RPE1; [4]): -11.1742%
- autophagy induction (TERT-RPE1; [5]): -13.4476%
- autophagy induction (TERT-RPE1; [6]): -16.3767%
- autophagy induction (TERT-RPE1; [7]): -4.026%
- autophagy induction (TERT-RPE1; [8]): -8.149%
- autophagy induction (TERT-RPE1; [9]): -12.0341%
- autophagy induction (TERT-RPE1; [10]): -15.552%
- autophagy induction (TERT-RPE1; [11]): -3.6803%
- autophagy induction (TERT-RPE1; [12]): -2.7744%
- autophagy induction (TERT-RPE1; [13]): -2.708%
- autophagy induction (TERT-RPE1; [14]): -2.7926%
- autophagy induction (U2OS [1]; [3]): -1.025%
- autophagy induction (U2OS [1]; [4]): -0.5625%
- autophagy induction (U2OS [1]; [5]): -1.224%
- autophagy induction (U2OS [1]; [6]): -0.01663%
- autophagy induction (U2OS [1]; [7]): 2.871%
- autophagy induction (U2OS [1]; [8]): 0.8864%
- autophagy induction (U2OS [1]; [9]): 0.6277%
- autophagy induction (U2OS [1]; [10]): 0.8248%
- autophagy induction (U2OS [1]; [11]): 1.474%
- autophagy induction (U2OS [1]; [12]): 3.015%
- autophagy induction (U2OS [1]; [13]): 1.861%
- autophagy induction (U2OS [1]; [14]): 1.49%
- autophagy induction (U2OS [2]; [3]): -6.393%
- autophagy induction (U2OS [2]; [4]): -7.561%
- autophagy induction (U2OS [2]; [5]): -8.567%
- autophagy induction (U2OS [2]; [6]): -6.096%
- autophagy induction (U2OS [2]; [7]): 2.736%
- autophagy induction (U2OS [2]; [8]): -0.6379%
- autophagy induction (U2OS [2]; [9]): 3.003%
- autophagy induction (U2OS [2]; [10]): 6.192%
- autophagy induction (U2OS [2]; [11]): 4.494%
- autophagy induction (U2OS [2]; [12]): -1.815%
- autophagy induction (U2OS [2]; [13]): -1.999%
- autophagy induction (U2OS [2]; [14]): -2.676%

SMILES: CS(=O)(=O)NC[C@H]1CC[C@H](Nc2nc3c(s2)CCSc2ccccc2-3)CC1
- autophagy induction (TERT-RPE1; [3]): -4.034%
- autophagy induction (TERT-RPE1; [4]): -8.281%
- autophagy induction (TERT-RPE1; [5]): -9.381%
- autophagy induction (TERT-RPE1; [6]): -11.7228%
- autophagy induction (TERT-RPE1; [7]): -3.533%
- autophagy induction (TERT-RPE1; [8]): -4.081%
- autophagy induction (TERT-RPE1; [9]): -4.248%
- autophagy induction (TERT-RPE1; [10]): -9.574%
- autophagy induction (TERT-RPE1; [11]): -3.228%
- autophagy induction (TERT-RPE1; [12]): -1.909%
- autophagy induction (TERT-RPE1; [13]): 1.0286%
- autophagy induction (TERT-RPE1; [14]): 5.565%
- autophagy induction (U2OS [1]; [3]): -4.815%
- autophagy induction (U2OS [1]; [4]): -2.571%
- autophagy induction (U2OS [1]; [5]): -1.135%
- autophagy induction (U2OS [1]; [6]): -2.5406%
- autophagy induction (U2OS [1]; [7]): -10.1359%
- autophagy induction (U2OS [1]; [8]): -5.225%
- autophagy induction (U2OS [1]; [9]): -2.722%
- autophagy induction (U2OS [1]; [10]): -2.833%
- autophagy induction (U2OS [1]; [11]): -13.0428%
- autophagy induction (U2OS [1]; [12]): -4.43%
- autophagy induction (U2OS [1]; [13]): -4.437%
- autophagy induction (U2OS [1]; [14]): -6.0772%
- autophagy induction (U2OS [2]; [3]): 7.101%
- autophagy induction (U2OS [2]; [4]): 7.652%
- autophagy induction (U2OS [2]; [5]): 1.469%
- autophagy induction (U2OS [2]; [6]): -11.3587%
- autophagy induction (U2OS [2]; [7]): 8.098%
- autophagy induction (U2OS [2]; [8]): 3.777%
- autophagy induction (U2OS [2]; [9]): 0.6599%
- autophagy induction (U2OS [2]; [10]): -6.18%
- autophagy induction (U2OS [2]; [11]): 6.84%
- autophagy induction (U2OS [2]; [12]): 4.331%
- autophagy induction (U2OS [2]; [13]): 3.398%
- autophagy induction (U2OS [2]; [14]): 7.256%

SMILES: CCC[C@H](Oc1cc(C)c(-n2cc(C(F)(F)F)cn2)c(C)c1)c1ccc(C(=O)NCCC(=O)O)cc1 [PF-06291874]
- autophagy induction (TERT-RPE1; Compound Concentration 0.5 uM, Timepoint 36 hours, 36 h, 0.5 µM): -0.178% and 20.1142%
- autophagy induction (U2OS [1]; [3]): -5.893%
- autophagy induction (U2OS [1]; [4]): -2.993%
- autophagy induction (U2OS [1]; [5]): -60.6887%
- autophagy induction (U2OS [1]; [6]): -2.982%
- autophagy induction (U2OS [1]; [7]): -4.845%
- autophagy induction (U2OS [1]; [8]): -1.051%
- autophagy induction (U2OS [1]; [9]): -59.3505%
- autophagy induction (U2OS [1]; [10]): -1.615%
- autophagy induction (U2OS [1]; [11]): -7.606%
- autophagy induction (U2OS [1]; [12]): -1.597%
- autophagy induction (U2OS [1]; [13]): -60.4241%
- autophagy induction (U2OS [1]; [14]): -2.455%
- autophagy induction (U2OS [2]; [3]): -11.4233%
- autophagy induction (U2OS [2]; [4]): -19.405%
- autophagy induction (U2OS [2]; [5]): -11.4713%
- autophagy induction (U2OS [2]; [6]): -20.1699%
- autophagy induction (U2OS [2]; [7]): -1.65%
- autophagy induction (U2OS [2]; [8]): -7.926%
- autophagy induction (U2OS [2]; [9]): -7.132%
- autophagy induction (U2OS [2]; [10]): -11.198%
- autophagy induction (U2OS [2]; [11]): 3.31%
- autophagy induction (U2OS [2]; [12]): 3.258%
- autophagy induction (U2OS [2]; [13]): -0.5015%
- autophagy induction (U2OS [2]; [14]): -15.9451%
